# Test results from US6482855B2, “Diamine alkylene diacetic or triacetic acid derivatives, preparation method, use in cosmetic and pharmaceutical compositions and compositions containing them” (L'Oreal S.A., priority 1997, dated 2002).
# pIC50: −log10 of the molar value. Structures can show the parent of a compound that is named as a salt.
# What was measured:
# V79 cells = assay: Protection of V79 cells against the toxicity of H2O2 (neutral red technique); format: cell-based; conditions: for pIC50: Cricetulus griseus, 1 hour contact with compound, then 30 μM H2O2 for one hour, cell number after 72 hours by neutral red, read-out: Result (concentration inducing 50% protection), IC50
# Method: The activity of the compounds was evaluated by their ability to protect V79 cells against the toxicity of H2O2, a technique conventionally used to evaluate the effectiveness of antioxidants or iron-chelating agents.
# V79 cells were subcultured in DMEM (Dulbecco Modified Essential Medium) medium supplemented with 10% of foetal calf serum, streptomycin, penicillin and glutamine at 37° C. under an atmosphere of 95% air+5% CO2.
# The cells were subsequently seeded at a density of 5×10^3/ml in 96-well plates.
# After 24 hours, the cells were rinsed and then incubated with the test compounds at different concentrations.
# After a contact time of 1 hour, 30 μM of H2O2 were added and incubated at 37° C. for a further one hour.
# The cells were subsequently rinsed and then again brought into contact with the supplemented medium described above.
# After 72 hours, the number of cells was evaluated in each well by using the neutral red technique.
# The protective effect is assessed by the IC50, which measures the concentration which induces 50% protection against cytotoxicity in comparison with the wells treated only with H2O2.
# [1] = Solubility limit noted in the V79 protection test; format: physicochemical; conditions: beyond 1 mM
smiles,measurement,setting,value
"COc1cc(CN(CCN(CC(=O)O)Cc2cc(OC)c(OC)c(OC)c2)CC(=O)O)cc(OC)c1OC [Comparative 1, the dihydrochloride of N,N′-bis(3,4,5-trimethoxybenzyl)ethylenediamine-N,N′-diacetic acid]",protection against H2O2 cytotoxicity,"V79 cells; compound at 10 mM, 30 μM H2O2",25% protection only at 10 mM
COC(=O)CN(CCN(CC(=O)OC)Cc1cc(OC)c(OC)c(OC)c1)Cc1cc(OC)c(OC)c(OC)c1 [Comparative 2],pIC50,V79 cells,< 3.00
same,solubility of compound in the test,[1],insoluble beyond this point)
"COc1cc(CN(CCN(CC(=O)OCOC(C)=O)Cc2cc(OC)c(OC)c(OC)c2)CC(=O)OCOC(C)=O)cc(OC)c1OC [Example 1, bis(acetoxymethyl) [N,N′-bis(3,4,5-trimethoxybenzyl)]-ethylenediamine-N,N′-diacetate]",pIC50,V79 cells,5.00
